As a reminder, the Km is the concentration of substrate that gives half-maximal velocity.

The source of these data is PMC8191290, “Substrate specificities and reaction kinetics of the yeast oligosaccharyltransferase isoforms” (The Journal of Biological Chemistry, 2021).

Read-outs that look alike come from different tables or passages of the source.

Experiment [1] addresses T1, OST3 complex (Saccharomyces cerevisiae, UniProt P39007).
T1 construct: were purified separately from strains expressing only one type of complex; made in house; host or cells: Saccharomyces cerevisiae, BY4742-derived strain ost6::LEU2MX6 OST4-1D4::kanMX6 YEp352-OST3
The experiment is described as follows: In vitro glycosylation assay, kinetic parameters for acceptor peptides, OST3 complex. The experiment is classed as biochemical. Particulars: for Km: 10 mM MnCl2, pH 7.5, 30 °C, UPLC TAMRA fluorescence, read-out: KM (apparent); for Km / kcat (apparent): n = 3; for kcat (apparent): 30 °C. As to the method:
Figure 2 In vitro glycosylation assay for OST activity and peptide sequence preferences.A, schematic representation of the in vitro reaction setup for yeast OST activity. The peptide substrate containing the glycosylation sequon N-X-(S/T) is labeled with the TAMRA fluorophore at the N-terminus. Incubation with OST, synthetic LLO, and a divalent metal ion (Mn^2+preferred) results in the transfer of the sugar moiety (two GlcNAcs, blue squares) from the LLO to the fluorescently labeled peptide, yielding a glycopeptide product. B, measurement and analysis of the in vitro assay shown in A. Fluorescently labeled peptide (P) substrate and glycopeptide (GP) product are separated by reverse-phase chromatography using UPLC. The glycopeptide elutes earlier than the peptide and amounts of glycopeptide are quantified at different reaction time points by peak integration. C, quantification of kinetic parameters for synthetic peptide TAMRA-DANYTK. Reactions were performed with 2.8 μg purified extract containing OST3 complex before size-exclusion chromatography (approximately 1 μM OST3 complex), 150 μM LLO C20, and varying concentrations of the peptide. Glycopeptide product was measured by UPLC and turnover rates were determined by linear regression of the initial phase of the reaction and taking into account the enzyme concentration. The mean of three reactions is shown and the data were fitted by nonlinear regression according to the Michaelis–Menten formula (R^2 = 0.9803) using Prism. Error bars indicate standard deviations from the mean (n = 3). D, screening glycosylatable peptides derived from highly glycosylated yeast sequences. Reactions were performed with 0.4 μM purified OST3 complex, 150 μM LLO C20, 25 μM TAMRA-DANYTK, and 25 μM unlabeled competitor peptide. TAMRA-DANYTK glycopeptide product formed after 30 min was measured by UPLC and % inhibition was determined relative to a control reaction containing no unlabeled competitor peptide. E, quantification of kinetic parameters for synthetic peptide TAMRA-YANATS. Reactions were performed with 0.1 μM purified OST3 complex, 100 μM LLO C20, and varying concentrations of the peptide. Turnover rates were determined as in C. The mean of three reactions is shown and the data were fitted by nonlinear regression according to the Michaelis–Menten formula (R^2 = 0.9794) using Prism. Error bars indicate standard deviations from the mean (n = 3). P, phosphate; TAMRA, tetramethylrhodamine.
(§1) TAMRA-labeled peptides with 5-TAMRA at the N-terminus and an amide group at the C-terminus were synthesized by WatsonBio Sciences. Unlabeled peptides (Table S1) were synthesized by Genscript Corp. and were designed so that the asparagine of the glycosylation sequon was in the middle (except for Peptide 8). Lyophilized peptides were dissolved in dimethyl sulfoxide (DMSO), unless specified otherwise, to a 3 mM stock solution and further diluted in ddH2O for reactions.
(§2) Reactions were performed in a total volume of 10 μl containing the specified amount of TAMRA-labeled peptide, synthetic LLO analog, 10 mM MnCl2, and purified OST after size-exclusion chromatography in purification buffer (50 mM Hepes, pH 7.5, 150 mM NaCl, 1 mM MgCl2, 1 mM MnCl2, 10% (v/v) glycerol, 0.03% (w/v) DDM, and 0.006% (w/v) CHS). The concentration of OST was calculated using the molecular weight of 280 kDa. The reaction mixture was preincubated at 30 °C for 5 min before adding the peptide to start the reaction that proceeded at 30 °C. Time points were taken such that the reaction was in the linear phase. At each time point, 1 μl reaction mixture was taken and the reaction was stopped by dilution in stop solution (0.1% FA in 10% ACN, 10 mM KPO4 pH 8.0) such that the final peptide concentration was 2 μM.
Samples were analyzed by reverse-phase chromatography using a UPLC Dionex UltiMate 3000 with an Accucore 150-C18 100 × 2.1 mm 2.6 μm column (Thermo Fisher Scientific). […]

In experiment [2] the target is T1, OST3 complex. The experiment is described as follows: Turnover of synthetic TAMRA-labeled peptides. It counts as biochemical. Particulars: for Turnover after 5 min / Glycopeptide detected / Relative turnover: 0.5 µM OST3 complex, 20 µM peptide; for Turnover after 5 min / Relative turnover: 150 µM LLO C20; for Glycopeptide detected: 150 µM LLO C20, 5 min; for Relative turnover: TAMRA-DANYTK turnover defined as 100 %, 5 min. How it is done:
as §1, §2
Samples were analyzed by reverse-phase chromatography using a UPLC Dionex UltiMate 3000 with an Accucore 150-C18 100 × 2.1 mm 2.6 μm column (Thermo Fisher Scientific). One microliter sample (2 pmol of peptide) was injected and measured by isocratic elution using a certain proportion of ACN (15% ACN for peptide TAMRA-DANYTK; 20% ACN for peptide TAMRA-YANATS) in 10 mM KPO4, pH 8.0 buffer so that the glycopeptide and peptide are fully separated and elute within 3 min at a constant flow rate of 0.7 ml/min, with a column temperature of 45 °C. The peptide and glycopeptide were detected through TAMRA fluorescence (excitation wavelength: 546 nm; emission wavelength: 579 nm).
The UPLC profiles were analyzed by integrating the peaks corresponding to the glycopeptide and peptide using Chromeleon 7 (Dionex) and calculating the amount of glycopeptide formed using the following equation, as previously described ([43]): [GP]=PeakareaGP/PeakareaP+PeakareaGP×[P] […]
Supp. Table 2. Turnover of synthetic TAMRA-labeled peptides
Peptide Glycopeptide Turnover after 5 min Relative turnover […]
TAMRA, tetramethylrhodamine
Turnover of TAMRA-labeled peptides after 5 min was determined using 0.5 µM OST3 complex, 20 µM indicated peptide and 150 µM LLO C20. Relative turnover compared to TAMRA-DANYTK is given by defining TAMRA-DANYTK turnover as 100 %.

The mark [3] stands for this setting: 0.1 μM purified OST3 complex, 100 μM LLO C20, 10–500 μM peptide.

In the case of “TAMRA-DANYTK-NH2 [fluorescently labeled hexapeptide TAMRA-DANYTK-NH2 as the acceptor peptide, reference compound]”, the kcat/KM on OST3 complex [1] (2.8 μg purified extract (approx. 1 μM OST3 complex), 150 μM LLO C20) was 0.02 min^-1 μM^−s1. At OST3 complex [1] (2.8 μg purified extract (approx. 1 μM OST3 complex, before SEC), 150 μM LLO C20, 10–400 μM peptide, saturation not reached, listed as TAMRA-DANYTK-NH2), the Km is roughly 200 µM. Further, the Km at OST3 complex [1] (2.8 μg purified extract (approx. 1 μM OST3 complex, before SEC), 150 μM LLO C20, 10–400 μM peptide, saturation not reached) came to 201 ± 51.3 µM. The “kcat (apparent)” value at OST3 complex [1] (2.8 μg purified extract (approx. 1 μM OST3 complex, before SEC), 150 μM LLO C20, 10–400 μM peptide) was found to be 3.9 ± 0.6 min⁻¹. Further, on OST3 complex [2], the “Turnover after 5 min” value is 6%, the Glycopeptide detected entry is recorded as “Yes” and the Relative turnover is on record as 100%.

Regarding “TAMRA-YANATS [shorter version of Peptide 5 of only six amino acid residues (TAMRA-YANATS)]”, the kcat/KM at OST3 complex [1] (0.1 μM purified OST3 complex, 100 μM LLO C20) is 0.26 min^-1 μM^−s1. On OST3 complex [1] (setting [3]), the Michaelis constant (Km) was found to be 55.6 ± 6.5 µM and the “kcat (apparent)” value stood at 14.5 ± 0.7 min⁻¹. Further, the “specificity relative to TAMRA-DANYTK” value on OST3 complex [1] (OST3 complex) was “over ten times more specific”. Also, at OST3 complex [1] (OST3 complex, relative to TAMRA-DANYTK), the “fold lower apparent KM” value was determined as 3.5 fold. Further, at OST3 complex [2], the “Turnover after 5 min” value is given as 84%, the Glycopeptide detected result is on record as “Yes” and the Relative turnover was 1400%. Further, the “times faster glycosylation than TAMRA-DANYTK” value on OST3 complex [2] (OST3 complex, initial turnover, relative to TAMRA-DANYTK) turned out to be 14 times.
